# Test system: p-IKKa levels in L363 (NIK translocated multiple myeloma) cells
# Assay: Assay 2: Effect of compounds on p-IKKa levels in L363 (NIK translocated multiple myeloma) cells
# Format: cell-based
# Details: Homo sapiens, L-363, 6 h, read-out: Assay 2 IC50 (nM), p-IKKa (Ser 176/180) in BAFF stimulated L363 cells with MG132, 6 h; average if tested more than once
# How it was run: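 L363 cells incubated overnight ± 250 ng/ml BAFF, then 6 h at 37 °C with compound (0.3% DMSO) ± 10 μM MG132. Lysates assayed for p-IKKa (Ser176/180) by AlphaLISA SureFire. IC50 from sigmoidal fit of % inhibition normalized to BAFF/MG132-stimulated and unstimulated controls.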
row,SMILES,IC50 [nM]
1,"COc1cc(-c2cc([C@]3(O)CCN(C)C3=O)on2)nc(-c2ccnc(Nc3ccn(C)n3)n2)c1 [Example 146, (R)-3-Hydroxy-3-(3-(4-methoxy-6-(2-((1-methyl-1H-pyrazol-3-yl)amino)pyrimidin-4-yl)pyridin-2-yl)isoxazol-5-yl)-1-methylpyrrolidin-2-one]",< 50
2,"CC(Nc1nccc(-c2cccc(-c3cc([C@]4(O)CCN(C)C4=O)on3)n2)n1)c1cc[nH]n1 (stereo partly drawn) [Example 147, (3R)-3-(3-(6-(2-((1-(1H-Pyrazol-3-yl)ethyl)amino)pyrimidin-4-yl)pyridin-2-yl)isoxazol-5-yl)-3-hydroxy-1-methylpyrrolidin-2-one]",50 to 500
3,"C[C@@H](O)[C@@H](Nc1nccc(-c2cccc(-c3cc([C@]4(O)CCN(C)C4=O)on3)n2)n1)c1ccccc1 [Example 152, (R)-3-Hydroxy-3-(3-(6-(2-(((1 S,2R)-2-hydroxy-1-phenylpropyl)amino)pyrimidin-4-yl)pyridin-2-yl)isoxazol-5-yl)-1-methylpyrrolidin-2-one]",50 to 500
4,"C[C@H](Nc1nccc(-c2cccc(-c3cc([C@]4(O)CCN(C)C4=O)on3)n2)n1)c1ccc2nccn2c1 [Example 153, (R)-3-Hydroxy-3-(3-(6-(2-(((S)-1-(imidazo[1,2-a]pyridin-6-yl)ethyl)amino)pyrimidin-4-yl)pyridin-2-yl)isoxazol-5-yl)-1-methylpyrrolidin-2-one]",> 500
5,"C[C@H](O)[C@@H](Nc1nccc(-c2cccc(-c3cc([C@]4(O)CCN(C)C4=O)on3)n2)n1)c1ccccc1 [Example 158, (R)-3-Hydroxy-3-(3-(6-(2-(((1 S,2S)-2-hydroxy-1-phenylpropyl)amino)pyrimidin-4-yl)pyridin-2-yl)isoxazol-5-yl)-1-methylpyrrolidin-2-one]",> 500
6,"C[C@@H](O)[C@H](Nc1nccc(-c2cccc(-c3cc([C@]4(O)CCN(C)C4=O)on3)n2)n1)c1ccccc1 [Example 159, (R)-3-Hydroxy-3-(3-(6-(2-(((1R,2R)-2-hydroxy-1-phenylpropyl)amino)pyrimidin-4-yl)pyridin-2-yl)isoxazol-5-yl)-1-methylpyrrolidin-2-one]",50 to 500
7,"C[C@@H](Nc1nccc(-c2cccc(-c3cc([C@]4(O)CCN(C)C4=O)on3)n2)n1)C(=O)N1CCC1 [Example 167, (R)-3-(3-(6-(2-(((R)-1-(Azetidin-1-yl)-1-oxopropan-2-yl)amino)pyrimidin-4-yl)pyridin-2-yl)isoxazol-5-yl)-3-hydroxy-1-methylpyrrolidin-2-one]",> 500
8,"C[C@H](Nc1nccc(-c2cccc(-c3cc([C@]4(O)CCN(C)C4=O)on3)n2)n1)C(=O)N1CCC1 [Example 168, (R)-3-(3-(6-(2-(((S)-1-(Azetidin-1-yl)-1-oxopropan-2-yl)amino)pyrimidin-4-yl)pyridin-2-yl)isoxazol-5-yl)-3-hydroxy-1-methylpyrrolidin-2-one]",50 to 500
9,"C[C@@H](Nc1nccc(-c2cccc(-c3cc([C@]4(O)CCN(C)C4=O)on3)n2)n1)C(=O)N1CC(F)(F)C1 [Example 169, (R)-3-(3-(6-(2-(((R)-1-(3,3-Difluoroazetidin-1-yl)-1-oxopropan-2-yl)amino)pyrimidin-4-yl)pyridin-2-yl)isoxazol-5-yl)-3-hydroxy-1-methylpyrrolidin-2-one]",> 500
10,"C[C@H](Nc1nccc(-c2cccc(-c3cc([C@]4(O)CCN(C)C4=O)on3)n2)n1)C(=O)N1CC(F)(F)C1 [Example 170, (R)-3-(3-(6-(2-(((S)-1-(3,3-Difluoroazetidin-1-yl)-1-oxopropan-2-yl)amino)pyrimidin-4-yl)pyridin-2-yl)isoxazol-5-yl)-3-hydroxy-1-methylpyrrolidin-2-one]",50 to 500
11,"C[C@@H](Nc1nccc(-c2cccc(-c3cc([C@]4(O)CCN(C)C4=O)on3)n2)n1)C(=O)N1CC(C(F)(F)F)C1 [Example 171, (R)-3-Hydroxy-1-methyl-3-(3-(6-(2-(((R)-1-oxo-1-(3-(trifluoromethyl)azetidin-1-yl)propan-2-yl)amino)pyrimidin-4-yl)pyridin-2-yl)isoxazol-5-yl)pyrrolidin-2-one]",50 to 500
12,"C[C@H](Nc1nccc(-c2cccc(-c3cc([C@]4(O)CCN(C)C4=O)on3)n2)n1)C(=O)N1CC(C(F)(F)F)C1 [Example 172, (R)-3-Hydroxy-1-methyl-3-(3-(6-(2-(((S)-1-oxo-1-(3-(trifluoromethyl)azetidin-1-yl)propan-2-yl)amino)pyrimidin-4-yl)pyridin-2-yl)isoxazol-5-yl)pyrrolidin-2-one]",50 to 500
13,"C[C@@H](Nc1nccc(-c2cccc(-c3cc([C@]4(O)CCN(C)C4=O)on3)n2)n1)C(=O)N1CCC(F)(F)C1 [Example 173, (R)-3-(3-(6-(2-(((R)-1-(3,3-Difluoropyrrolidin-1-yl)-1-oxopropan-2-yl)amino)pyrimidin-4-yl)pyridin-2-yl)isoxazol-5-yl)-3-hydroxy-1-methylpyrrolidin-2-one]",> 500
14,"C[C@H](Nc1nccc(-c2cccc(-c3cc([C@]4(O)CCN(C)C4=O)on3)n2)n1)C(=O)N1CCC(F)(F)C1 [Example 174, (R)-3-(3-(6-(2-(((S)-1-(3,3-Difluoropyrrolidin-1-yl)-1-oxopropan-2-yl)amino)pyrimidin-4-yl)pyridin-2-yl)isoxazol-5-yl)-3-hydroxy-1-methylpyrrolidin-2-one]",50 to 500
15,"C[C@@H](Nc1nccc(-c2cccc(-c3cc([C@]4(O)CCN(C)C4=O)on3)n2)n1)C(=O)N(C)C [Example 175, (R)-2-((4-(6-(5-((R)-3-Hydroxy-1-methyl-2-oxopyrrolidin-3-yl)isoxazol-3-yl)pyridin-2-yl)pyrimidin-2-yl)amino)-N,N-dimethylpropanamide]",> 500
16,"C[C@H](Nc1nccc(-c2cccc(-c3cc([C@]4(O)CCN(C)C4=O)on3)n2)n1)C(=O)N(C)C [Example 176, (S)-2-((4-(6-(5-((R)-3-Hydroxy-1-methyl-2-oxopyrrolidin-3-yl)isoxazol-3-yl)pyridin-2-yl)pyrimidin-2-yl)amino)-N,N-dimethylpropanamide]",50 to 500
17,"C[C@@H](Nc1nccc(-c2cccc(-c3cc([C@]4(O)CCN(C)C4=O)on3)n2)n1)C(=O)N1CC(C)(F)C1 [Example 177, (R)-3-(3-(6-(2-(((R)-1-(3-Fluoro-3-methylazetidin-1-yl)-1-oxopropan-2-yl)amino)pyrimidin-4-yl)pyridin-2-yl)isoxazol-5-yl)-3-hydroxy-1-methylpyrrolidin-2-one]",> 500
18,"C[C@H](Nc1nccc(-c2cccc(-c3cc([C@]4(O)CCN(C)C4=O)on3)n2)n1)C(=O)N1CC(C)(F)C1 [Example 178, (R)-3-(3-(6-(2-(((S)-1-(3-Fluoro-3-methylazetidin-1-yl)-1-oxopropan-2-yl)amino)pyrimidin-4-yl)pyridin-2-yl)isoxazol-5-yl)-3-hydroxy-1-methylpyrrolidin-2-one]",50 to 500
19,"C[C@@H](Nc1nccc(-c2cccc(-c3cc([C@]4(O)CCN(C)C4=O)on3)n2)n1)C(=O)N1CCCCC1 [Example 179, (R)-3-Hydroxy-1-methyl-3-(3-(6-(2-(((R)-1-oxo-1-(piperidin-1-yl)propan-2-yl)amino)pyrimidin-4-yl)pyridin-2-yl)isoxazol-5-yl)pyrrolidin-2-one]",50 to 500
20,"C[C@H](Nc1nccc(-c2cccc(-c3cc([C@]4(O)CCN(C)C4=O)on3)n2)n1)C(=O)N1CCCCC1 [Example 180, (R)-3-Hydroxy-1-methyl-3-(3-(6-(2-(((S)-1-oxo-1-(piperidin-1-yl)propan-2-yl)amino)pyrimidin-4-yl)pyridin-2-yl)isoxazol-5-yl)pyrrolidin-2-one]",50 to 500
21,"C[C@H](Nc1nccc(-c2cccc(-c3cc([C@]4(O)CCN(C)C4=O)on3)n2)n1)C(=O)N(C)c1ccccc1 [Example 181, (S)-2-((4-(6-(5-((R)-3-Hydroxy-1-methyl-2-oxopyrrolidin-3-yl)isoxazol-3-yl)pyridin-2-yl)pyrimidin-2-yl)amino)-N-methyl-N-phenylpropanamide]",> 500
22,"C[C@H](Nc1nccc(-c2cccc(-c3cc([C@]4(O)CCN(C)C4=O)on3)n2)n1)C(N)=O [Example 182, (S)-2-((4-(6-(5-((R)-3-Hydroxy-1-methyl-2-oxopyrrolidin-3-yl)isoxazol-3-yl)pyridin-2-yl)pyrimidin-2-yl)amino)propanamide]",50 to 500
23,"CNC(=O)[C@H](C)Nc1nccc(-c2cccc(-c3cc([C@]4(O)CCN(C)C4=O)on3)n2)n1 [Example 183, (S)-2-((4-(6-(5-((R)-3-Hydroxy-1-methyl-2-oxopyrrolidin-3-yl)isoxazol-3-yl)pyridin-2-yl)pyrimidin-2-yl)amino)-N-methylpropanamide]",50 to 500
24,"C[C@H](Nc1nccc(-c2cccc(-c3cc([C@]4(O)CCN(C)C4=O)on3)n2)n1)C(=O)N1CCCC1 [Example 184, (R)-3-Hydroxy-1-methyl-3-(3-(6-(2-(((S)-1-oxo-1-(pyrrolidin-1-yl)propan-2-yl)amino)pyrimidin-4-yl)pyridin-2-yl)isoxazol-5-yl)pyrrolidin-2-one]",50 to 500
25,"CN1CC[C@@](O)(c2cc(-c3cccc(-c4ccnc(NCC(=O)N5CC(F)(F)C5)n4)n3)no2)C1=O [Example 185, (R)-3-(3-(6-(2-((2-(3,3-Difluoroazetidin-1-yl)-2-oxoethyl)amino)pyrimidin-4-yl)pyridin-2-yl)isoxazol-5-yl)-3-hydroxy-1-methylpyrrolidin-2-one]",> 500
26,"CN1CC[C@@](O)(c2cc(-c3cccc(-c4ccnc(Nc5ccon5)n4)n3)no2)C1=O [Example 186, (R)-3-Hydroxy-3-(3-(6-(2-(isoxazol-3-ylamino)pyrimidin-4-yl)pyridin-2-yl)isoxazol-5-yl)-1-methylpyrrolidin-2-one]",50 to 500
